In data set [1] the test system is flank organ of mature male Syrian golden hamsters. Nature of the data set: Topical comparison in mature male hamsters, right flank organ treated, left flank organ vehicle (Tables II, III). The class given is in vivo. To be noted: for Flank organ Diameter, RFO / Flank organ Weight, RFO / Flank organ Development, RFO (median score): treated right flank organ; for Flank organ Diameter, RFO / Flank organ Weight, RFO: mean; for Flank organ Diameter, RFO / Flank organ Weight, RFO / Flank organ Development, RFO (median score) / Flank Organ (Mean Score) Area / Flank Organ (Mean Score) Elevation / Flank Organ (Mean Score) Hair Growth / Flank Organ (Mean Score) Hair Pigmentation / Flank Organ (Mean Score) Skin Pigmentation: n=7; for Flank organ Development, RFO (median score): scale 0 to 4 (0 barely visible, 4 as in mature male); for Flank Organ (Mean Score) Area / Flank Organ (Mean Score) Elevation / Flank Organ (Mean Score) Hair Growth / Flank Organ (Mean Score) Hair Pigmentation / Flank Organ (Mean Score) Skin Pigmentation: RFO, scale 0 to 4. The source says: Each flank organ of mature male Syrian golden hamsters having a mean initial body weight of 105 g. was medicated topically with the compound of Formula I dissolved in ethanol (5 microliters) for twenty-one days. Flank organ hair was clipped three times per week to facilitate application. On the day following the last medication the hamsters were killed with an overdose of sodium pentobarbital. The flank organ parameters and the weights of seminal vesicles, adrenals and thymus glands were determined. Flank organ diameter was measured parallel to the breadth of the hamster with vernier calipers. Wet weights were obtained on flank organs excised around the periphery of the pigmented area. The topical activity of the compound of Formula I was also compared with that of 17β-hydroxy-17α-propylandrost-4-en-3-one, an antiandrogen, and hydrocortisone. In this experiment the right flank organ was treated with the test compound while vehicle-treated left flank organ served as control. […] In addition, the individual characteristics of the flank organ, elevation (thickness relative to adjacent skin), area, hair pigment, skin pigment and hair growth were all scored separately on a scale of 0 to 4.

The subject of data set [2] is male hamster flank organ hair. Nature of the data set: Rate of flank organ hair growth by 35S-cystine pulse labelling (Table V). Type of data set: in vivo, Syrian golden hamsters. As to conditions: right flank organ, 5 microliters 0.1% solution daily for 14 days; mean ± SE, n=8. As to the method: In a second test all hair was clipped from the flank organs of 8 male Syrian golden hamsters having a mean body weight of 116 g. on the first day of the study. The hamsters were medicated daily with 5 microliters of ethanol on the left flank organ and 5 microliters of a 0.1% solution of the compound of Formula I in ethanol on the right flank organ for 14 consecutive days. On days 4, 8 and 12 each hamster was injected subcutaneously with 30 microcuries of ^35 S-cystine (0.72 nmole) dissolved in ethanol-saline (0.1 ml., 1:9, v/v). On day 15 several hairs were plucked from each flank organ. The hairs were exposed to X-ray film for 4 weeks. The distances between the radioactive sites and the hair resulting from the three pulses of ^35 S-cystine were measured and the daily rate of hair-growth was determined. As shown by Table V the rate of hair growth was reduced after 12 days of treatment.

Data set [3] deals with T1, hamster flank organ cytosol receptor (Mesocricetus auratus, UniProt A0A1U7QL32).
T1 construct: The homogenate was centrifuged (120,000×g for 45 min.) and the cytosol was frozen and stored at -70° C; from tissue; host or cells: flank organ cytosol of castrated male Syrian golden hamsters
T1 sequence (A0A1U7QL32 1-900): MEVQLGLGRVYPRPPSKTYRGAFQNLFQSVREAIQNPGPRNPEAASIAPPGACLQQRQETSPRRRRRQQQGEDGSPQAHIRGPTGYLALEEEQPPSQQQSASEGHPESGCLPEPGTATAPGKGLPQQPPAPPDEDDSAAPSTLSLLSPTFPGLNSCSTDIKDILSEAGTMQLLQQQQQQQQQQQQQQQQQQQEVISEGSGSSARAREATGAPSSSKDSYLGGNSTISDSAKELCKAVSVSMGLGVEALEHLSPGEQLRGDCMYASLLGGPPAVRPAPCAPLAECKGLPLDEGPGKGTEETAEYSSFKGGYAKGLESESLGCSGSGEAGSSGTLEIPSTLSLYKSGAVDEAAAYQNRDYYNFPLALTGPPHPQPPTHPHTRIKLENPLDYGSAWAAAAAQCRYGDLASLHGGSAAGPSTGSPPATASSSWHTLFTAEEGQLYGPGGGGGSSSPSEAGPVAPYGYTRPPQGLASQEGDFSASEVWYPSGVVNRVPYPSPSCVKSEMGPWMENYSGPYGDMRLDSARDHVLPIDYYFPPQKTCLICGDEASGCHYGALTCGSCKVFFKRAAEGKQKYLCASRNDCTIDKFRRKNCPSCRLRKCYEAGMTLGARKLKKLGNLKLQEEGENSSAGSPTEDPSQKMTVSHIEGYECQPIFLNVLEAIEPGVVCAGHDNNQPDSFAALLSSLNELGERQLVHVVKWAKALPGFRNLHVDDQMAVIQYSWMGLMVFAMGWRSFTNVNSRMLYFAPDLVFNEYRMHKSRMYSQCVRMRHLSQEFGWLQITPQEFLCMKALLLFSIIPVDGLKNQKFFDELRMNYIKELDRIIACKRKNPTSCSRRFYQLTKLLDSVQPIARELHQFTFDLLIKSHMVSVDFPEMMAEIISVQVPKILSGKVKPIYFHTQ
Nature of the data set: Binding competition with 3H-dihydrotestosterone in hamster flank organ cytosol in vitro (Table VI). More on the design: species or system Syrian golden hamsters. As to conditions: 3H-DHT 2 nM, two hours, no antagonist 13.96. The procedure:
The flank organs of twelve mature male Syrian golden hamsters each weighing from 120 to 140 g. and having been castrated 16-18 hours earlier were excised, dissected under the microscope to remove the dermis and the muscle layers and homogenized in buffer (1.5 volumes of 50 mM Tris, 0.5 mM mercaptoethanol and 0.1 mM ethylenediamine tetracetate, pH 7.4). The homogenate was centrifuged (120,000×g for 45 min.) and the cytosol was frozen and stored at -70° C. Six of the cytosol samples were thawed at room temperature, pooled and used for evaluation of in vitro binding.

Data set [4] deals with androgen-stimulated flank organ. Nature of the data set: Related experiment: androgen-stimulated flank organ in mature female and castrated immature male hamsters. As to conditions: 5 to 25 micrograms per flank organ. Type of data set: in vivo. The source says: As shown by Table I the diameters and the wet weights of the flank organs were reduced at a dose of 5 micrograms per flank organ per day.

With `CC#C[C@]1(O)CC[C@H]2[C@@H]3C[C@H](C)C4=Cc5[nH]ncc5C[C@]4(C)[C@H]3CC[C@@]21C` [Compound of Formula I, 17β-Hydroxy-6α-methyl-17α-propynyl-4-androsteno[3,2-c]-pyrazole], in data set [1] (5 μg/RFO for 21 days), the “Flank organ Diameter, RFO” value was found to be 5.2 mm; the “Flank organ Weight, RFO” value is 35.9 mg; the “Flank organ Development, RFO (median score)” value stood at 3. Moreover, in data set [1] (50 μg/RFO for 21 days), the “Flank organ Diameter, RFO” value is reported as 5.0 mm; the “Flank organ Weight, RFO” value came to 33.2 mg; the “Flank organ Development, RFO (median score)” value amounted to 3. For the same molecule, the “Dose response of flank organ inhibition” value in data set [1] (5 and 50 μg/RFO topical for 21 days) was “flat dose response curve”. In data set [1] (5 μg/flank organ for 21 days), the “Flank Organ (Mean Score) Area” value is 3.3, the “Flank Organ (Mean Score) Elevation” value was found to be 3.1, the “Flank Organ (Mean Score) Hair Growth” value turned out to be 1.4 and the “Flank Organ (Mean Score) Hair Pigmentation” value was determined as 3.6. Moreover, the “Flank Organ (Mean Score) Skin Pigmentation” value in data set [1] (5 μg/flank organ for 21 days) stood at 3.3. Moreover, in data set [1] (50 μg/flank organ for 21 days), the “Flank Organ (Mean Score) Area” value is on record as 3.0, the “Flank Organ (Mean Score) Elevation” value worked out at 2.6, the “Flank Organ (Mean Score) Hair Growth” value turned out to be 0 and the “Flank Organ (Mean Score) Hair Pigmentation” value was 3.0. In addition, the “Flank Organ (Mean Score) Skin Pigmentation” value in data set [1] (50 μg/flank organ for 21 days) is recorded as 3.1. In addition, in data set [2], the “Rate of Hair Growth, First Interval (Day 4-8)” value is given as “.504 ± .014 mm/day” and the “Rate of Hair Growth, Second Interval (Day 9-12)” value is on record as “.566 ± .014 mm/day”. Besides, the “% Bound (Mean ± SE) of 3H-dihydrotestosterone” value (“% Bound (Mean ± SE)” for short) in data set [3] (unlabelled antagonist 20 nM, molar ratio 10) is 9.94 ± .45%. The “% Bound (Mean ± SE)” value in data set [3] (unlabelled antagonist 200 nM, molar ratio 100) is given as 8.55 ± .56%. Further, the “% Bound (Mean ± SE)” value in data set [3] (unlabelled antagonist 2000 nM, molar ratio 1000) is on record as 6.30 ± .003%. For the same molecule, in data set [4], the “Inhibition of androgen-stimulated flank organ parameters” value was “effective inhibitor of androgen-stimulated flank organ parameters” and the Systemic effects result was “without any systemic effects”.

(Values after patent US4269831A, “Topical dermatological method of use of an androstenopyrazole” (priority 1979, dated 1981).)
